Data as given in patent publication US8541418B2, “Inhibitors of polo-like kinase” (Elan Pharmaceutical, Inc., priority 2009, dated 2013).
pIC50: −log10 of the molar value.

Tests used:
Assay type in all cases: biochemical
PLK2 = PLK2 (Homo sapiens, UniProt Q9NYY3); assay: PLK TR-FRET peptide assay, PLK2; details: for pIC50: PLK TR-FRET peptide assay, GST-PLK2, 60 min reaction, read-out: Plk2 IC50
PLK3 = PLK3 (Homo sapiens, UniProt Q9H4B4); assay: PLK TR-FRET peptide assay, PLK3; details: GST-PLK3, 15 min reaction, read-out: Plk3 IC50
PLK1 = PLK1 (Homo sapiens, UniProt P53350); assay: PLK TR-FRET peptide assay, PLK1; details: GST-PLK1, 60 min reaction
Sequence of PLK1 (P53350 whole entry): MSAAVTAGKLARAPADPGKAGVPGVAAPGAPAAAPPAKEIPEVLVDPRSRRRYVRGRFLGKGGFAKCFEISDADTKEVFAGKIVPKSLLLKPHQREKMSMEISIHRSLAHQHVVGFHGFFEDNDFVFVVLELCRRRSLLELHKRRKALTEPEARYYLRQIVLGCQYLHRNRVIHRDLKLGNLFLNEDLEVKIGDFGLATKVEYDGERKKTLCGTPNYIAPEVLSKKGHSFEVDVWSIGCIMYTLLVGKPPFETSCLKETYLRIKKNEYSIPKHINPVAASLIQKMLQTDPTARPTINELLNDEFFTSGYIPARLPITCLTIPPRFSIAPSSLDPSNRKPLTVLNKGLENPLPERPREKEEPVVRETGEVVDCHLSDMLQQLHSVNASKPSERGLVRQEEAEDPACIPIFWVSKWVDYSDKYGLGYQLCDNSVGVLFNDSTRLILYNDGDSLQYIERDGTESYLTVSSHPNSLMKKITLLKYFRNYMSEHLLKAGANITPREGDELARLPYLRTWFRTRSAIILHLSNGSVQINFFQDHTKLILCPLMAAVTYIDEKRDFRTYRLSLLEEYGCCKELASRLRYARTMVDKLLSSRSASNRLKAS

Sequence of PLK2 (Q9NYY3 whole entry): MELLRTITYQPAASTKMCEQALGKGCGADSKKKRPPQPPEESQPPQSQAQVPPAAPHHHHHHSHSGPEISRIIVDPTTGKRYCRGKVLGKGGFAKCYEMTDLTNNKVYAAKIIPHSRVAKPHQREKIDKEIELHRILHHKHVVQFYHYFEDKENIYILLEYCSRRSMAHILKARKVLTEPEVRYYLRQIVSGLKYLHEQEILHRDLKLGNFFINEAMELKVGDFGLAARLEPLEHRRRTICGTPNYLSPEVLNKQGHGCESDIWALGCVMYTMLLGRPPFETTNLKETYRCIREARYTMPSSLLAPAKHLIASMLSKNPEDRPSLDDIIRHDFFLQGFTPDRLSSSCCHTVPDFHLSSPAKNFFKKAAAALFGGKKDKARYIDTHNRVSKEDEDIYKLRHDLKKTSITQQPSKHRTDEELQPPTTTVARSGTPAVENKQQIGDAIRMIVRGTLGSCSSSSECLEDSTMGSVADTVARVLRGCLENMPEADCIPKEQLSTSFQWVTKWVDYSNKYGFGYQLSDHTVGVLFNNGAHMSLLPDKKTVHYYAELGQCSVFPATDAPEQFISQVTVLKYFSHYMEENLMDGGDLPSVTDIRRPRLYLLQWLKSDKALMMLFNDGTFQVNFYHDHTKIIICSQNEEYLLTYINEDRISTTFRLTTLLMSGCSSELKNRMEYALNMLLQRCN
Sequence of PLK3 (Q9H4B4 whole entry): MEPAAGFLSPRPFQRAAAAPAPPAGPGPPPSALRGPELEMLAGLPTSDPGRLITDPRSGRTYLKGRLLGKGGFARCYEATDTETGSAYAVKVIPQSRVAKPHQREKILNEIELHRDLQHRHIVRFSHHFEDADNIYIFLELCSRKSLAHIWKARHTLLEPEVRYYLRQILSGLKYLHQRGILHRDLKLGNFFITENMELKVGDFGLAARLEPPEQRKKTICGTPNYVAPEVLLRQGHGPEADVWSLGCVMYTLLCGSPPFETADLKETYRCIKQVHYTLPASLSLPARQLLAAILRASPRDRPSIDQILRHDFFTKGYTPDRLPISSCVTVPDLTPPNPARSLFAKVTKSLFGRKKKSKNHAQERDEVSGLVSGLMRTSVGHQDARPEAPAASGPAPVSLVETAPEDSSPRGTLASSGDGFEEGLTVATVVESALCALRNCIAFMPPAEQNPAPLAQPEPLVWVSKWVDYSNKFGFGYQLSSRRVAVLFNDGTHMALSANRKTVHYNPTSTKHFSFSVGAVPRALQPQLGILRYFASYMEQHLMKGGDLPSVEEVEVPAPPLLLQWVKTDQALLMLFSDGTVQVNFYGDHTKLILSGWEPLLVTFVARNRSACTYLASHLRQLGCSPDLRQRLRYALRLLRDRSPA

SMILES | pIC50 (PLK2) | pIC50 (PLK3) | pIC50 (PLK1) | relative PLK2 activity of the enantiomers (PLK2; compared with the opposite enantiomer)
CC[C@@H]1C(=O)N(C)c2cnc(-c3c[nH]nc3-c3ccccc3)nc2N1C(C)C [Example 164, (R)-7-ethyl-8-isopropyl-5-methyl-2-(3-phenyl-1H-pyrazol-4-yl)-7,8-dihydropteridin-6(5H)-one] | > 6.00 | > 6.00 | > 6.00 | 
CC[C@@H]1CC[C@@]2(CC)C(=O)N(C)c3cnc(-c4cn[nH]c4-c4nccs4)nc3N12 [Example 340, (6aS,9R)-6a,9-diethyl-5-methyl-2-(5-(thiazol-2-yl)-1H-pyrazol-4-yl)-6a,7,8,9-tetrahydropyrrolo[2,1-h]pteridin-6(5H)-one] | > 6.00 | 5.00 to 6.00 | > 6.00 | 
CC[C@@]12CCCN1c1nc(-c3nccnc3-c3ccccc3)ncc1N(C)C2=O [Example 316, (S)-6a-ethyl-5-methyl-2-(3-phenylpyrazin-2-yl)-6a,7,8,9-tetrahydropyrrolo[2,1-h]pteridin-6(5H)-one] | 5.00 to 6.00 | 5.00 to 6.00 | 4.30 to 5.00 | 
CC[C@@]12CCCN1c1nc(-n3ccnc3-c3cc(Cl)cc(Cl)c3)ncc1N(C)C2=O [Example 184, (S)-2-(2-(3,5-dichlorophenyl)-1H-imidazol-1-yl)-6a-ethyl-5-methyl-6a,7,8,9-tetrahydropyrrolo[2,1-h]pteridin-6(5H)-one] | > 6.00 | 4.30 to 5.00 | 4.30 to 5.00 | 
CC[C@@]12CCCN1c1nc(N3CCN=C3c3ccccc3)ncc1N(C)C2=O [Example 281, (S)-6a-ethyl-5-methyl-2-(2-phenyl-4,5-dihydro-1H-imidazol-1-yl)-6a,7,8,9-tetrahydropyrrolo[2,1-h]pteridin-6(5H)-one] | > 6.00 | 4.30 to 5.00 | < 4.30 | 
CC[C@@H]1C(=O)N(C)c2cnc(-c3ccncc3CNS(C)(=O)=O)nc2N1C(C)C [Example 131, (R)—N-((4-(7-ethyl-8-isopropyl-5-methyl-6-oxo-5,6,7,8-tetrahydropteridin-2-yl)pyridin-3-yl)methyl)methanesulfonamide] | 4.30 to 5.00 | < 4.30 | < 4.30 | 
CC[C@]12CCCCN1c1nc(-n3ccnc3-c3ccc(F)cc3F)ncc1N(C)C2=O [Example 270, (R)-2-(2-(2,4-difluorophenyl)-1H-imidazol-1-yl)-6a-ethyl-5-methyl-7,8,9,10-tetrahydro-5H-pyrido[2,1-h]pteridin-6(6aH)-one] | 4.30 to 5.00 | < 4.30 | < 4.30 | 
CC[C@@]12CCCCN1c1nc(-n3ccnc3-c3ccc(F)cc3F)ncc1N(C)C2=O [Example 269, (S)-2-(2-(2,4-difluorophenyl)-1H-imidazol-1-yl)-6a-ethyl-5-methyl-7,8,9,10-tetrahydro-5H-pyrido[2,1-h]pteridin-6(6aH)-one] | > 6.00 | 4.30 to 5.00 | 4.30 to 5.00 | more active compound
CCC12CCCCN1c1nc(-n3ccnc3-c3cccc(F)c3)ncc1N(C)C2=O (racemic) [Example 239, (+/−) 6a-ethyl-2-(2-(3-fluorophenyl)-1H-imidazol-1-yl)-5-methyl-7,8,9,10-tetrahydro-5H-pyrido[2,1-h]pteridin-6(6aH)-one] | > 6.00 | 4.30 to 5.00 | 5.00 to 6.00 | 

The next lines start with the values.

pIC50 (PLK2) | pIC50 (PLK3) | pIC50 (PLK1) | relative PLK2 activity of the enantiomers (PLK2; compared with the opposite enantiomer) | SMILES
5.00 to 6.00 | 4.30 to 5.00 | 4.30 to 5.00 |  | CCC12CCCCCN1c1nc(-n3nccc3-c3ccccc3)ncc1N(C)C2=O (stereo not shown) [Example 209, 6a-ethyl-5-methyl-2-(5-phenyl-1H-pyrazol-1-yl)-6a,7,8,9,10,11-hexahydroazepino[2,1-h]pteridin-6(5H)-one]
4.30 to 5.00 | < 4.30 | < 4.30 |  | CN1C(=O)C2CC3CC3N2c2nc(-n3ccnc3-c3ccccc3)ncc21 (stereo not shown) [Example 304, 5-Methyl-2-(2-phenyl-imidazol-1-yl)-7,7a,8,8a-tetrahydro-5H,6aH-1,3,5,8b-tetraaza-cyclopropa[4,5]cyclopenta[1,2-a]naphthalen-6-one]
> 6.00 | 5.00 to 6.00 | > 6.00 |  | CC[C@@H]1C(=O)N(C)c2cnc(-n3cnc(-c4nccs4)c3)nc2N1C1CCCC1 [Example 60, (R)-8-cyclopentyl-7-ethyl-5-methyl-2-(4-(thiazol-2-yl)-1H-imidazol-1-yl)-7,8-dihydropteridin-6(5H)-one]
> 6.00 | < 4.30 | 4.30 to 5.00 |  | CC[C@@H]1C(=O)N(C)c2cnc(-n3ccnc3-c3ccc(F)cn3)nc2N1CCC(F)(F)F [Example 244, (R)-7-ethyl-2-(2-(5-fluoropyridin-2-yl)-1H-imidazol-1-yl)-5-methyl-8-(3,3,3-trifluoropropyl)-7,8-dihydropteridin-6(5H)-one]
< 4.30 | < 4.30 | < 4.30 |  | CC[C@@H]1C(=O)Nc2cnc(-n3cccn3)nc2N1C1CCCC1 [Example 29, (R)-8-cyclopentyl-7-ethyl-2-(1H-pyrazol-1-yl)-7,8-dihydropteridin-6(5H)-one]
> 6.00 | 5.00 to 6.00 | 5.00 to 6.00 |  | CC[C@@H]1C(=O)N(C)c2cnc(-c3cccc(NS(C)(=O)=O)c3)nc2N1C1CCCC1 [Example 53, (R)—N-(3-(8-cyclopentyl-7-ethyl-5-methyl-6-oxo-5,6,7,8-tetrahydropteridin-2-yl)phenyl)methanesulfonamide]
> 6.00 | 5.00 to 6.00 | 5.00 to 6.00 |  | CC[C@@H]1C(=O)N(C)c2cnc(-n3ccnc3-n3ccccc3=O)nc2N1C1CCCC1 [Example 113, (R)-8-cyclopentyl-7-ethyl-5-methyl-2-(2-(2-oxopyridin-1(2H)-yl)-1H-imidazol-1-yl)-7,8-dihydropteridin-6(5H)-one]
> 6.00 | 4.30 to 5.00 | 4.30 to 5.00 |  | CC[C@@H]1C(=O)N(C)c2cnc(-c3ccncc3-c3ccccc3)nc2N1C1CC1 [Example 142, (R)-8-cyclopropyl-7-ethyl-5-methyl-2-(3-phenylpyridin-4-yl)-7,8-dihydropteridin-6(5H)-one]
> 6.00 | < 4.30 | 4.30 to 5.00 |  | CC[C@@H]1C(=O)N(C)c2cnc(-n3ccnc3-c3ccc(C(F)(F)F)cc3)nc2N1C1CCC1 [Example 171, (R)-8-cyclobutyl-7-ethyl-5-methyl-2-(2-(4-(trifluoromethyl)phenyl)-1H-imidazol-1-yl)-7,8-dihydropteridin-6(5H)-one]
5.00 to 6.00 | 5.00 to 6.00 | 5.00 to 6.00 |  | CC[C@@H]1C(=O)N(C)c2cnc(-n3ncnc3-c3cccc4ncccc34)nc2N1C1CCC1 [Example 215, (R)-8-cyclobutyl-7-ethyl-5-methyl-2-(5-(quinolin-5-yl)-1H-1,2,4-triazol-1-yl)-7,8-dihydropteridin-6(5H)-one]
> 6.00 | 5.00 to 6.00 | 5.00 to 6.00 |  | CC[C@@H]1C(=O)N(C)c2cnc(-n3ccnc3-c3ccc(F)cc3)nc2N1C(C)C1CC1 (stereo partly drawn) [Example 351, (7R)-8-(1-cyclopropylethyl)-7-ethyl-2-(2-(4-fluorophenyl)-1H-imidazol-1-yl)-5-methyl-7,8-dihydropteridin-6(5H)-one]
5.00 to 6.00 | 4.30 to 5.00 | 4.30 to 5.00 |  | CC[C@@H]1C(=O)N(C)c2cnc(-c3ccncc3CNC(C)=O)nc2N1C1CCCC1 [Example 122, (R)—N-((4-(8-cyclopentyl-7-ethyl-5-methyl-6-oxo-5,6,7,8-tetrahydropteridin-2-yl)pyridin-3-yl)methyl)acetamide]
